Values after ≈ are worked out from the molar mass of the structure shown. Like-named read-outs stand apart in the source and are kept apart here. Marks after values point to notes of the source that are not given here.
Tests used:
Escherichia coli [1] = test: MIC by serial dilution (agar wells), E. coli; format: cell-based
colon cancer (HCT116) = test: cells; format: cell-based; settings: Homo sapiens
[2] = test system: osteosarcoma cell line (HOS); test: cells; format: cell-based; settings: Homo sapiens, 48 h, 100 μg/mL
[3] = test system: pancreatic cancer cell line (PACA2); test: cells; format: cell-based; settings: Homo sapiens, PaCa-2, 48 h
prostate cancer (PC3) = test: cells; format: cell-based; settings: Homo sapiens, 48 h
skin cancer (A431) = test: cells; format: cell-based; settings: Homo sapiens, A-431, 100 μg/mL, 48 h
Escherichia coli [4] = test: Agar well diffusion, E. coli; format: cell-based; settings: Escherichia coli, read-out: Inhibition zones diameter
A549 [5] = test: DNA damage, comet assay, A549; format: cell-based, human
KRAS = test: qRT-PCR, KRAS in A549 cells; format: cell-based, human; settings: versus negative samples
A549 [6] = test: DNA fragmentation assay, A549; format: cell-based, human
EGFR = test: qRT-PCR, EGFR in A549 cells; format: cell-based, human; settings: versus negative samples
in vitro = format: cell-based; settings: human, BJ1 normal skin fibroblast cells, 100 μg/mL
Bacillus mycoides [7] = test: microbe, parasite or virus in culture; format: cell-based
[8] = test system: hepatocellular carcinoma cell line (HePG2); test: cells; format: cell-based; settings: Homo sapiens, 48 h
Bacillus mycoides [9] = test: microbe, parasite or virus in culture; format: cell-based; remark: listed apart in the source
[10] = test system: human lung carcinoma (A549); test: cells; format: cell-based
Candida albicans [11] = test: MIC by serial dilution (agar wells), C. albicans; format: cell-based
Candida albicans [12] = test: Agar well diffusion, C. albicans; format: cell-based
[13] = 0.00488 mg/mL, 150 µL in DMSO, 15 mm agar well
[14] = 0.00975 mg/mL, 150 µL in DMSO, 15 mm agar well
[15] = 0.0195 mg/mL, 150 µL in DMSO, 15 mm agar well
[16] = 0.0391 mg/mL, 150 µL in DMSO, 15 mm agar well
[17] = 0.0781 mg/mL, 150 µL in DMSO, 15 mm agar well
[18] = 0.1563 mg/mL, 150 µL in DMSO, 15 mm agar well
[19] = 0.3125 mg/mL, 150 µL in DMSO, 15 mm agar well
[20] = 0.625 mg/mL, 150 µL in DMSO, 15 mm agar well
[21] = 1.25 mg/mL, 150 µL in DMSO, 15 mm agar well
[22] = 2.50 mg/mL, 150 µL in DMSO, 15 mm agar well
[23] = 5.00 mg/mL, 150 µL in DMSO, 15 mm agar well
[24] = 10.0 mg/mL, 150 µL in DMSO, 15 mm agar well
[25] = read-out: Minimum inhibition concentration (MIC)

Work on `Cc1ccc(S(=O)(=O)NC(=O)Nc2ccc(OC(F)(F)F)cc2)cc1` [Compound 8, 4-Methyl-N-[(4-{trifluoromethoxy}phenyl)carbamoyl]benzenesulfonamide] yielded a zone of inhibition at 4.88 µg/mL (Escherichia coli [1]; [13]) of 16 mm, a zone of inhibition at 9.75 µg/mL (Escherichia coli [1]; [14]) of 17 mm and a zone of inhibition at 19.5 µg/mL (Escherichia coli [1]; [15]) of 17 mm. The zone of inhibition at 39.1 µg/mL (Escherichia coli [1]; [16]) was 18 mm, the zone of inhibition at 78.1 µg/mL (Escherichia coli [1]; [17]) was 18 mm and the zone of inhibition at 156.3 µg/mL (Escherichia coli [1]; [18]) was 19 mm. It also gave a zone of inhibition at 312.5 µg/mL (Escherichia coli [1]; [19]) of 23 mm, a zone of inhibition at 625 µg/mL (Escherichia coli [1]; [20]) of 25 mm and a zone of inhibition at 1250 µg/mL (Escherichia coli [1]; [21]) of 27 mm. It also gave a zone of inhibition at 2500 µg/mL (Escherichia coli [1]; [22]) of 28 mm, a zone of inhibition at 5000 µg/mL (Escherichia coli [1]; [23]) of 29 mm and a zone of inhibition at 10000 µg/mL (Escherichia coli [1]; [24]) of 32 mm. For the same compound, the MIC (Escherichia coli [1]; [25]) was 4.88 µg/mL (≈ 13 µM), the mortality at 100 µg/mL (colon cancer (HCT116); HCT-116, 48 h, 100 μg/mL) was 100% and the IC50 (colon cancer (HCT116); HCT-116, MTT, 48 h) was 47.3 ± 0.91 µM. For the same compound, the mortality at 100 µg/mL [2] was over 50%, the mortality at 100 µg/mL ([3]; 100 μg/mL) was 100% and the IC50 ([3]; MTT) was 22.4 ± 0.49 µM. The mortality at 100 µg/mL (prostate cancer (PC3); 100 μg/mL) was 100%, the IC50 (prostate cancer (PC3); MTT) was 57.2 ± 0.39 µM and the mortality at 100 µg/mL (skin cancer (A431)) was 27.5 ± 0.64%. The zone of inhibition at 10000 µg/mL (Escherichia coli [4]) was 29 ± 0.44 mm, the “DNA damaged cells % (mean ± SEM)” value (A549 [5]) was 24.75 ± 1.03^a % and the “Class 0 (no tail), number of cells” value (A549 [5]; of 400 cells analyzed) was 301. For the same compound, the “Class 1 (tail length < diameter of nucleus), number of cells” value (A549 [5]; of 400 cells analyzed) was 39, the “Class 2 (tail length between 1 and 2 × the diameter of nucleus), number of cells” value (A549 [5]; of 400 cells analyzed) was 38 and the “Class 3 (tail length > 2 × the diameter of nucleus), number of cells” value (A549 [5]; of 400 cells analyzed) was 22. The “No. of cells, Comets” value (A549 [5]; of 400 cells analyzed) was 99, the “KRAS gene expression level” value (KRAS) was “significant reduction” and the “Change (DNA fragmentation versus untreated cells)” value (A549 [6]) was 22.8. For the same compound, the “DNA fragmentation % M ± SEM” value (A549 [6]; IC50 concentration, 24 h) was 34.2 ± 0.57^a %, the Inhibition (A549 [6]; doxorubicin = 0.0) was 16.92 and the “EGFR gene expression level” value (EGFR) was “significant reduction”. The mortality at 48 h, 100 µg/mL (in vitro) was 6.2 ± 1.54%, the Inhibition zones diameter (Bacillus mycoides [7]; B. mycoides, 200 μL of 10 mg/mL in DMSO in 15 mm holes, overnight 37 °C) was 37 ± 0.23 mm and the zone of inhibition at 10000 µg/mL (Bacillus mycoides [7]; Bacillus mycoides, read-out: Inhibition zones diameter) was 37 mm. For the same compound, the mortality at 100 µg/mL ([8]; 100 μg/mL) was 100%, the IC50 ([8]; MTT) was 74 ± 0.29 µM and the zone of inhibition at 4.88 µg/mL (Bacillus mycoides [9]; read-out: Inhibition zone) was 17 mm. The zone of inhibition at 9.75 µg/mL (Bacillus mycoides [9]; read-out: Inhibition zone) was 17 mm, the zone of inhibition at 19.5 µg/mL (Bacillus mycoides [9]; read-out: Inhibition zone) was 17 mm and the zone of inhibition at 39.1 µg/mL (Bacillus mycoides [9]; read-out: Inhibition zone) was 17 mm. It also gave a zone of inhibition at 78.1 µg/mL (Bacillus mycoides [9]; read-out: Inhibition zone) of 17 mm, a zone of inhibition at 156.3 µg/mL (Bacillus mycoides [9]; read-out: Inhibition zone) of 17 mm and a zone of inhibition at 312.5 µg/mL (Bacillus mycoides [9]; read-out: Inhibition zone) of 20 mm. It also gave a zone of inhibition at 625 µg/mL (Bacillus mycoides [9]; read-out: Inhibition zone) of 23 mm, a zone of inhibition at 1250 µg/mL (Bacillus mycoides [9]; read-out: Inhibition zone) of 26 mm and a zone of inhibition at 2500 µg/mL (Bacillus mycoides [9]; read-out: Inhibition zone) of 27 mm. The zone of inhibition at 5000 µg/mL (Bacillus mycoides [9]; read-out: Inhibition zone) was 27 mm, the zone of inhibition at 10000 µg/mL (Bacillus mycoides [9]; read-out: Inhibition zone) was 32 mm and the MIC (Bacillus mycoides [9]; [25]) was 4.88 µg/mL (≈ 13 µM). It also gave a mortality at 100 µg/mL ([10]; A549, 48 h, 100 μg/mL) of 100%, an IC50 ([10]; MTT, 48 h) of 55.8 ± 0.11 µM and a zone of inhibition at 4.88 µg/mL (Candida albicans [11]; [13]) of 16 mm. For the same compound, the zone of inhibition at 9.75 µg/mL (Candida albicans [11]; [14]) was 17 mm, the zone of inhibition at 19.5 µg/mL (Candida albicans [11]; [15]) was 17 mm and the zone of inhibition at 39.1 µg/mL (Candida albicans [11]; [16]) was 17 mm. For the same compound, the zone of inhibition at 78.1 µg/mL (Candida albicans [11]; [17]) was 18 mm, the zone of inhibition at 156.3 µg/mL (Candida albicans [11]; [18]) was 23 mm and the zone of inhibition at 312.5 µg/mL (Candida albicans [11]; [19]) was 25 mm. For the same compound, the zone of inhibition at 625 µg/mL (Candida albicans [11]; [20]) was 27 mm, the zone of inhibition at 1250 µg/mL (Candida albicans [11]; [21]) was 28 mm and the zone of inhibition at 2500 µg/mL (Candida albicans [11]; [22]) was 30 mm. For the same compound, the zone of inhibition at 5000 µg/mL (Candida albicans [11]; [23]) was 32 mm, the zone of inhibition at 10000 µg/mL (Candida albicans [11]; [24]) was 34 mm and the MIC (Candida albicans [11]; [25]) was 4.88 µg/mL (≈ 13 µM). For the same compound, the Inhibition zones diameter (Candida albicans [12]; C. albicans, 200 μL of 10 mg/mL in DMSO in 15 mm holes, overnight 37 °C) was 38 ± 0.67 mm and the zone of inhibition at 10000 µg/mL (Candida albicans [12]; Candida albicans, read-out: Inhibition zones diameter) was 38 mm.
